Reference: article PMC10289985, “Brigatinib pharmacokinetics in patients with chronic hepatic impairment” (Investigational New Drugs, 2023)

Experiments:
[1] = Safety and adverse event monitoring after a single 90-mg dose; type: in vivo, human
Description: All enrolled participants who received brigatinib were included in the safety population. Adverse event (AE) monitoring occurred throughout the study. Physical examination was conducted at screening with additional symptom-directed physical examinations performed at the investigator’s discretion on study Days −1 and 9. Height, weight, and BMI were recorded at screening. Vital signs were recorded at screening; on Day −1; predose and at 0.5, 1, 2, 3, 4, 6, 8, 12, 24, 36, 48, 72, 96, 120, 144, and 168 hours postdose; and on Day 9. Electrocardiograms were conducted at screening, on Day −1, predose and at 3 and 48 hours postdose, and on Day 9. Clinical laboratory evaluations were performed at screening and on Days −1 and 9 and were reviewed by the investigator for clinical significance.

[2] = system: ALK-positive metastatic NSCLC; design: method as in PMID 36065449; settings: 180 mg QD with 7-day lead-in at 90 mg QD; median follow-up 28.3 months; cited from earlier work
[3] = design: method as in PMID 27836716, PMID 29915924; settings: cited from earlier work
[4] = system: cytochrome P450 (CYP) 2C8 and CYP3A4; design: method as in ref 13 = [13]; 13. Alunbrig [package insert] (2022) Takeda Pharmaceuticals America, Inc., Lexington, MA; settings: in vitro; cited from earlier work

**Q.** With COc1cc(N2CCC(N3CCN(C)CC3)CC2)ccc1Nc1ncc(Cl)c(Nc2ccccc2P(C)(C)=O)n1 [brigatinib] as the compound, how does the “number of TEAEs” value ([1]; Child-Pugh A group) read?
**A.** Its value is 2 events.

**Q.** What about the “participants with one or more TEAEs” value ([1]; Child-Pugh A group (n=6)) of the same compound?
**A.** The value was 2 participants.

**Q.** What about the “number of TEAEs” value ([1]; Child-Pugh B group) of the same compound?
**A.** Its value is 13 events.

**Q.** What about the “participants with moderate TEAEs possibly related to the study drug” value ([1]; Child-Pugh B group) of the same compound?
**A.** The value was “Two”.

**Q.** What about the “participants with one or more TEAEs” value ([1]; Child-Pugh B group (n=6)) of the same compound?
**A.** Its value is 4 participants.

**Q.** What about the “number of TEAEs” value ([1]; Child-Pugh C group) of the same compound?
**A.** Its value is 2 events.

**Q.** What about the “participants with one or more TEAEs” value ([1]; Child-Pugh C group (n=6)) of the same compound?
**A.** The value was 2 participants.

**Q.** And the “participants with one or more treatment-emergent adverse events (TEAEs)” value ([1]; all 27 study participants, single 90 mg)?
**A.** The value was 13 participants.

**Q.** What about the participants with constipation ([1]; all participants) of the same compound?
**A.** The participants with constipation was 2 participants.

**Q.** What about the participants with dyspnea ([1]; all participants) of the same compound?
**A.** Its participants with dyspnea is 2 participants.

**Q.** And the participants with headache ([1]; all participants)?
**A.** Its participants with headache is 4 participants.

**Q.** And the participants with hypertension ([1]; all participants)?
**A.** Its participants with hypertension is 2 participants.

**Q.** And the participants with nausea ([1]; all participants)?
**A.** The participants with nausea was 2 participants.

**Q.** And the “changes in laboratory values or electrocardiogram measurements” value ([1]; during the study)?
**A.** Its value is “No clinically significant changes”.

**Q.** And the “discontinuation due to an AE” value ([1]; during the study)?
**A.** The value was “no participants discontinued”.

**Q.** And the “serious AEs” value ([1]; during the study)?
**A.** The value was “no serious AEs”.

**Q.** What about the “number of TEAEs” value ([1]; healthy participant group) of the same compound?
**A.** Its value is 5 events.

**Q.** What about the “participants with one or more TEAEs” value ([1]; healthy participant group (n=9)) of the same compound?
**A.** Its value is 5 participants.

**Q.** And the tolerability ([1]; single 90-mg dose, healthy participants and participants with hepatic impairment)?
**A.** The tolerability was “well tolerated”.

**Q.** And the “IRC-assessed confirmed objective response rate (ORR)” value [2]?
**A.** The value was 56%.

**Q.** And the “IRC-assessed median progression-free survival (PFS)” value [2]?
**A.** The value was 16.7 months.

**Q.** What about the “mean plasma terminal elimination half-life” value [3] of the same compound?
**A.** The value was “approximately 25 hours”.

**Q.** What about the metabolizing enzymes [4] of the same compound?
**A.** The metabolizing enzymes was “primarily metabolized by cytochrome P450 (CYP) 2C8 and CYP3A4”.
